According to US6946463B2, “1,2,5,10-tetrahydropyridazino[4,5-b]quinoline-1,10-diones and their use for the treatment of pain” (Astrazeneca AB, priority 2000, dated 2005):
Where a name gives a salt, the structure may show the parent alone. Read-outs that look alike come from different tables or passages of the source.

Target: T1, NMDA receptor glycine site (Rattus norvegicus, UniProt P35439)
T1 construct: fresh brain tissue including cerebral cortex and hippocampus from male Sprague Dawley rats was homogenized; tissue Analytical Biological Services Inc; host or cells: rat brain membranes (cerebral cortex and hippocampus, male Sprague Dawley rats)
Experiment: Test A: Inhibition of binding of [3H]-MDL105,519 to brain membranes
From the text: Test A: Inhibition of Binding of [^3H]-MDL105,519:
Binding of compounds to the NMDA receptor glycine site may be assessed by measuring the ability of test compounds to inhibit the binding of tritiated MDL105,519 to brain membranes bearing the receptor.
Briefly, fresh brain tissue including cerebral cortex and hippocampus from male Sprague Dawley rats was homogenized in 0.32 M sucrose and centrifuged at low speed to separate cellular membranes from other cellular components. The membranes were then washed 3 times using deionized water, followed by treatment with 0.04% Triton X-100. Finally, membranes were washed six times in 50 mM Tris citrate buffer, pH 7.4, and frozen at −80° C. until use.
[^3H]MDL105,519 (72 Ci/mmol) was purchased from Amersham. Cold MDL105,519 was purchased from Sigma/RBI. […] On the day of the experiment, brain membranes were thawed at room temperature and suspended in 50 mM tris acetate buffer, pH 7.4 (“TAB”). Seventy-five micro grams per milliliter protein (by using the BioRad dye) were used for competition binding. The experiments were carried out using 96-well plates. […] Non specific binding was determined by using 100 μM of unlabeled MDL105,519. […] After incubation, unbound [^3H]ML105,519 was removed by filtration onto GF/B Unifilter plates using a Packard harvester. Filters were washed four times with ice cold TAB (total of 1.2 mL buffer). The plates were dried overnight at room temperature and bound radioactivity was measured on a Packard TopCount after the addition of 45 μL per well of the MICROSCINT O.
Human Brain Membranes: Human brain membranes were obtained from Analytical Biological Services Inc., and assays were performed as described for rat membranes.
Data analysis: Data was analyzed using a Microsoft Excel spreadsheet and GraphPad Prizm software and potency of compounds is expressed as the Ki (nM).

[1] = inhibition of [3H]-MDL105,519 binding to brain membranes, 1.2 nM radioligand, 30 minutes at room temperature

Row | Structure (SMILES) | Ki | also measured
1 | O=c1c2ccc(Cl)cc2[nH]c2c(O)nn(C(c3ccccn3)C3CC3)c(=O)c12 (racemic) [Ex. 1, (+/−)-7-Chloro-4-hydroxy-2-(1-cyclopropyl-1-pyrid-2-yl)methyl-1,2,5,10-tetrahydropyridazino[4,5-b]quinoline-1,10-dione] |  | Ki [1]: 0.996 µM
2 | O=c1[nH]n(C(c2ccccn2)C2CCCC2)c(=O)c2c(O)c3ccc(Cl)cc3nc12 (racemic) [Ex. 3, (+/−)-7-Chloro-4-hydroxy-2-(1-cyclopentyl-1-pyrid-2-yl)methyl-1,2,5,10-tetrahydropyridazino[4,5-b]quinoline-1,10-dione hydrochloride] |  | Ki (inhibition of [3H]-MDL105,519 binding to brain membranes, bound in μM): > 10 µM
3 | O=c1c2ccc(Cl)cc2[nH]c2c(O)nn(C(c3ccccc3)c3ccncc3)c(=O)c12 (racemic) [Ex. 4, (+/−)-7-Chloro-4-hydroxy-2-(1-phenyl-1-pyrid-4-yl)methyl-1,2,5,10-tetrahydropyridazino[4,5-b]quinoline-1,10-dione] |  | Ki [1]: 3.69 µM
4 | Cc1cnccc1C(C)n1nc(O)c2[nH]c3cc(Cl)ccc3c(=O)c2c1=O (racemic) [Ex. 5, (+/−)-7-Chloro-4-hydroxy-2-(1-(3-methylpyrid-4-yl))ethyl-1,2,5,10-tetrahydropyridazino[4,5-b]quinoline-1,10-dione] | 0.907 µM | 
5 | Cc1cccnc1C(C)n1nc(O)c2[nH]c3cc(Cl)ccc3c(=O)c2c1=O (racemic) [Ex. 7, (+/−)-7-Chloro-4-hydroxy-2-(1-methyl(3-methylpyrid-2-yl)methyl)-1,2,5,10-tetrahydropydridazino[4,5-b]quinoline-1,10-dione methanesulfonate] | 1.78 µM | 
6 | Cc1cc(C(C)n2nc(O)c3[nH]c4cc(Cl)ccc4c(=O)c3c2=O)ccn1 (racemic) [Ex. 8, (+/−)-7-Chloro-4-hydroxy-2-(1-methyl(2-methylpyrid-4-yl)methyl)-1,2,5,10-tetrahydropyridazino[4,5-b]quinoline-1,10-dione methanesulfonate] | 0.228 µM | 
7 | CC(c1cccc[n+]1[O-])n1nc(O)c2[nH]c3cc(Cl)ccc3c(=O)c2c1=O (racemic) [Ex. 10, (+/−)-7-Chloro-4-hydroxy-2-(1-pyrid-2-yl-N-oxide)ethyl-1,2,5,10-tetrahydropyridazino[4,5-b]quinoline-1,10-dione] | 2.57 µM | 
8 | CC(c1cc[n+]([O-])cc1)n1[nH]c(=O)c2nc3cc(Cl)ccc3c(O)c2c1=O (racemic) [Ex. 11, (+/−)-7-Chloro-4-hydroxy-2-(1-pyrid-4-yl-N-oxide)ethyl-1,2,5,10-tetrahydrpyridazino[4,5-b]quinoline-1,10-dione] | 2.42 µM | 
